From EP1383510B1, “BISPHOSPHONATE CONJUGATES AND METHODS OF MAKING AND USING THE SAME” (priority 2001, dated 2002)

Experiments:
[1] = Binding of novel bisphosphonate conjugates on hydroxyapatite powder (UV spectra before/after treatment); conditions: pH 7.0
Experimental: To estimate the binding of NBC on hydroxyapatite (the mineral component of bone) UV spectra of NBC at pH7 were recorded before and after treatment with hydroxyapatite. […] The supernatant was separated and an absorption spectrum of the supernatant was recorded.

[2] = HPLC-analysis of hydrolytic stability of nucleotide-bisphosphonate conjugate in buffer; assay type: physicochemical
Experimental: (§1) HPLC-analysis of hydrolytic stability of conjugate VI, Fig. 2, in buffer and in human serum was carried out under the following conditions: column Nucleosil C-18 (30-C18), 0-4% triethylammonium acetate (0.1 M, pH6.8); 20 min, flow rate -1 ml/min. […] The stability of the conjugate was decreased in mouse/human serum as it is evidenced from data on Fig.3. However, the conjugate is stable enough to be delivered to a skeleton in intact form.

[3] = HPLC-analysis of stability of nucleotide-bisphosphonate conjugate in serum; assay type: in vitro ADME; conditions: mouse/human serum; Fig.3
Experimental: as §1

[4] = Biodistribution in rats of vitamin B6 - bisphosphonate conjugates in complex with 99mTc; assay type: in vivo; conditions: as complexing agent of the bone-scanning agent; general statement
Experimental: The probes were prepared with molar concentration of about 10^-3 molar at pH 6.5, with a molar ratio SnCl2 to a conjugate 1:10 and 1 m^cl/ml pertechnetate.
Male rats weighting […] were injected intravenously via the tail vein. The rats were sacrificed and dissected at selected times - 30 min., 60 min., and 120 min. The activity uptake in bone, blood, muscle, liver and spleen of each rat was measured. The results obtained indicate 40-45% of initial radioactivity injected was accumulated at bone skeleton after 60-90 min.

% of bound compound [1]	% of nonbound compound [1]	hydrolytic stability (stable for several hours) ([2]; buffer solution at pH 5-7, several hours)	stability of the conjugate in serum [3]	uptake in bone [4]	SMILES	hydrolytic stability of the P-O-P bond ([2]; incubation either at pH >8.0 or at pH<3.0)
69,66%	30,34%	more than 97%	decreased	–	CC(O)(P(=O)(O)O)P(=O)(O)OP(=O)(O)OCC1OC(n2cc(F)c(=O)[nH]c2=O)C(O)C1O (stereo not shown) [VI, Anhydride of 5-fluorouridine-5'-monophosphoric acid and 1-hydroxyethylidene-1,1-bisphosphonic acid]	Hydrolytic cleavage of the conjugate P-O-P bond occurred
100%	0%	–	–	–	Cc1ncc(COP(=O)(O)O)c(CNC(P(=O)(O)O)P(=O)(O)O)c1O [(iii), 1 - (N-[5 '-phospho] -pyridoxylamino)-methylene-1,1-bisphosphonic acid]	–
100%	0%	–	–	–	Cc1ncc(CO)c(CNC(P(=O)(O)O)P(=O)(O)O)c1O [(iv), 1 -(N-pyridoxyl amino) -methylen-1, 1 -bisphosphonic acid]	–
87,26%	12,74%	–	–	–	O=c1[nH]c(=O)n(COCCOCCOP(=O)(O)CP(=O)(O)O)cc1F [II, Anhydride of 1-([2-{hydroxyethoxy}ethoxy]methylene)-5-fluorouracil and methylenediphosphonic acid]	–
70,05%	–	–	–	–	O=c1[nH]c(=O)n(C2OC(COP(=O)(O)OP(=O)(O)CP(=O)(O)O)C(O)C2O)cc1F (stereo not shown) [III, Anhydride of 5-fluorouridine-5'-monophosphoric acid and methylenediphosphonic acid]	–
88,68%	11,32%	–	–	–	CC(O)(P(=O)(O)O)P(=O)(O)OP(=O)(O)OCC1OC(n2ccc(=O)[nH]c2=O)C(O)C1O (stereo not shown) [VII, Anhydride of uridine-5 '-monophosphoric acid and 1-hydroxyethylidene-1,1 diphosphonic acid]	–
100%	0%	–	–	–	Cc1ncc(COP(=O)(O)O)c(CNCCC(O)(P(=O)(O)O)P(=O)(O)O)c1O [(i), 3 - (N-[5 '-phospho] -pyridoxylamino) -1-hydroxypropyliden-1,1-bisphosphonic acid]	–
100%	0%	–	–	high and rapid uptake in bone	Cc1ncc(CO)c(CNCCC(O)(P(=O)(O)O)P(=O)(O)O)c1O [(ii), 3-(N-pyridoxylamino) -1-hydroxypropyliden-1,1-bisphosphonic acid]	–
